Experimental data published in patent US9409952B2, “Peptide-compound cyclization method” (Chugai Seiyaku Kabushiki Kaisha, priority 2011, dated 2016).
Like-named read-outs stand apart in the source and are kept apart here. Starred links: 1 amine or outer side, 2 acyl side, 3 side chain; linkers in the order of their positions; H or OH if unused. Positions of bridges follow the written chain, without caps; N, C: chain ends. Non-standard residues stand in square brackets, D forms with d. Residues, ends and D or L forms follow the SMILES beside them. *: point of attachment. NMeF = CN[C@@H](Cc1ccccc1)C(=O)O; NMeGABA = CN(CCCC(=O)[*:2])[*:1]; NMeβAla = CN(CCC(=O)[*:2])[*:1]; NMeL = CN[C@@H](CC(C)C)C(=O)O; NMeV = CN[C@H](C(=O)O)C(C)C; NMeA = CN[C@@H](C)C(=O)O; Piperidide = C1CCN(*)CC1; dNMeA = CN[C@H](C)C(=O)O; Sar = CNCC(=O)O; tBu = CC(C)(C)*

Legend:
[1] = Metabolic stability in human hepatic microsome; format: in vitro ADME; conditions: microsomes
[2] = PAMPA (parallel artificial membrane permeability assay); format: in vitro ADME; conditions: PAMPA
Method in brief: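 Artificial membrane was 10% (w/v) egg lecithin plus 0.5% (w/v) cholesterol in dodecane on a PVDF filter. A 10 mM DMSO stock was added at 0.5% (v/v) to donor buffer (50 mM MOPSO, pH 6.5, 5.0% glycocholic acid). After 18 h at 37 °C, LC/MS or LC/UV gave donor and acceptor levels for Pe.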

[3] = pH 7.4, human hepatic microsome, NADPH(+), read-out: CL NADPH(+)
[4] = membrane permeation rate (Pe), 50 mM MOPSO buffer pH 6.5 with 5.0% glycocholic acid, 37° C., 18 hours, read-out: iPAMPA Pe

Row | SMILES | microsomal CLint at 1 uM [1, 3] [µL/min/mg] | Papp at 18 hours, 50 µM [2, 4] [×10⁻⁶ cm/s] | microsomal CLint at 1 uM ([1]; human, pH 7.4, CL NADPH(+)) [µL/min/mg] | Papp at 18 hours, 50 µM ([2]; pH 6.5) [×10⁻⁶ cm/s]
1 | CC(C)C[C@H]1C(=O)N[C@@H]([C@@H](C)O)C(=O)N[C@H](C(=O)N(C)[C@@H](Cc2ccccc2)C(=O)N(C)[C@@H](Cc2ccccc2)C(=O)N[C@@H](C)C(=O)N2CCCCC2)CC(=O)N(C)CCCC(=O)N(C)[C@@H](C)C(=O)N(C)[C@@H](Cc2ccccc2)C(=O)N[C@@H](C(C)C)C(=O)N(C)[C@@H](CC(C)C)C(=O)N(C)CC(=O)N1C [DP-404] ([NMeGABA][NMeA][NMeF]V[NMeL][Sar][NMeL]TD[NMeF][NMeF]A-Piperidide; lactam N-9) | 107 | 20 | – | –
2 | CC(C)C[C@H]1C(=O)N[C@@H]([C@@H](C)O)C(=O)N(C)[C@@H](C)C(=O)N(C)[C@@H](CC(C)C)C(=O)N[C@@H](C(C)C)C(=O)N[C@H](C(=O)N(C)[C@@H](Cc2ccccc2)C(=O)N(C)[C@@H](Cc2ccccc2)C(=O)N[C@@H](C)C(=O)N2CCCCC2)CC(=O)N(C)[C@@H](C)C(=O)N(C)[C@@H](Cc2ccccc2)C(=O)N(C)CC(=O)N1C [DP-405] ([NMeA][NMeF][Sar][NMeL]T[NMeA][NMeL]VD[NMeF][NMeF]A-Piperidide; lactam N-9) | 83 | 26 | – | –
3 | CC(C)C[C@H]1C(=O)N[C@@H]([C@@H](C)O)C(=O)N[C@H](C(=O)N(C)[C@@H](Cc2ccccc2)C(=O)N(C)[C@@H](Cc2ccccc2)C(=O)N[C@@H](C)C(=O)N2CCCCC2)CC(=O)N(C)[C@@H](C)C(=O)N(C)CC(=O)N(C)[C@@H](Cc2ccccc2)C(=O)N(C)[C@@H](C)C(=O)N[C@@H](C)C(=O)N(C)[C@@H](C)C(=O)N1C [DP-406] ([NMeA][Sar][NMeF][NMeA]A[NMeA][NMeL]TD[NMeF][NMeF]A-Piperidide; lactam N-9) | 11 | 4.4 | – | –
4 | CC(C)C[C@H]1C(=O)N[C@@H](C(C)C)C(=O)N[C@H](C(=O)N(C)[C@@H](Cc2ccccc2)C(=O)N(C)[C@@H](Cc2ccccc2)C(=O)N[C@@H](C)C(=O)N2CCCCC2)CC(=O)N(C)CC(=O)N(C)[C@@H](CC(C)C)C(=O)N(C)[C@@H](Cc2ccccc2)C(=O)N[C@@H]([C@@H](C)O)C(=O)N(C)[C@@H](C)C(=O)N(C)CC(=O)N1C [DP-407] ([Sar][NMeL][NMeF]T[NMeA][Sar][NMeL]VD[NMeF][NMeF]A-Piperidide; lactam N-9) | 29 | 38 | – | –
5 | CC(C)C[C@@H]1NC(=O)[C@H](C)N(C)C(=O)[C@H](C(C)C)N(C)C(=O)CN(C)C(=O)[C@H](Cc2ccccc2)NC(=O)[C@H](C(C)C)N(C)C(=O)[C@H](C)N(C)C(=O)[C@H]([C@@H](C)O)NC(=O)[C@H](Cc2ccccc2)N(C)C(=O)[C@H](C)NC(=O)CCN(C)C(=O)C[C@@H](C(=O)N2CCCCC2)NC1=O [DP-408] ([NMeβAla]A[NMeF]T[NMeA][NMeV]F[Sar][NMeV][NMeA]LD-Piperidide; lactam N-12) | – | – | 14 | 1.9
6 | CC(C)C[C@H]1C(=O)N(C)[C@@H](C)C(=O)N[C@@H]([C@@H](C)O)C(=O)N(C)[C@@H](C)C(=O)N(C)[C@@H](C(C)C)C(=O)N[C@@H](COC(C)(C)C)C(=O)N[C@H](C(=O)N2CCCCC2)CC(=O)N(C)[C@H](C)C(=O)N(C)[C@@H](Cc2ccccc2)C(=O)N[C@@H](C)C(=O)N(C)[C@@H](C)C(=O)N[C@@H](Cc2ccccc2)C(=O)N1C [DP-409] ([dNMeA][NMeF]A[NMeA]F[NMeL][NMeA]T[NMeA][NMeV]S(tBu)D-Piperidide; lactam N-12) | – | – | 28 | 13
7 | CC(C)C[C@H]1C(=O)N(C)[C@@H](C(C)C)C(=O)N[C@@H](C(C)C)C(=O)N(C)CC(=O)N(C)[C@@H](C)C(=O)N[C@@H]([C@@H](C)O)C(=O)N(C)[C@@H](C)C(=O)N[C@H](C(=O)N2CCCCC2)CC(=O)N(C)[C@@H](C)C(=O)N(C)[C@@H](C)C(=O)N(C)[C@@H](Cc2ccccc2)C(=O)N[C@@H](C)C(=O)N1C [DP-410] ([NMeA][NMeA][NMeF]A[NMeL][NMeV]V[Sar][NMeA]T[NMeA]D-Piperidide; lactam N-12) | 19 | 1.4 | – | –
8 | CC[C@H](C)[C@@H]1NC(=O)[C@H](CC(C)C)NC(=O)CCN(C)C(=O)C[C@@H](C(=O)N2CCCCC2)NC(=O)[C@H](CC(C)C)NC(=O)[C@H](Cc2ccccc2)NC(=O)[C@H]([C@@H](C)O)NC(=O)[C@H](CC(C)C)NC(=O)[C@H](C(C)C)NC(=O)[C@H](CC(C)C)NC(=O)CN(C)C1=O [DP-411] ([NMeβAla]LI[Sar]LVLTFLD-Piperidide; lactam N-11) | 114 | 8.4 | – | –
9 | CC[C@H](C)[C@@H]1NC(=O)[C@H](CC(C)C)N(C)C(=O)[C@H](C(C)C)NC(=O)[C@H](CC(C)C)NC(=O)[C@H](CC(C)C)NC(=O)[C@H]([C@@H](C)O)NC(=O)[C@H](Cc2ccccc2)NC(=O)[C@H](CC(C)C)NC(=O)[C@H](C(C)C)N(C)C(=O)CCN(C)C(=O)C[C@@H](C(=O)N2CCCCC2)NC1=O [DP-412] ([NMeβAla][NMeV]LFTLLV[NMeL]ID-Piperidide; lactam N-11) | 122 | 26 | – | –
10 | CC[C@H](C)[C@@H]1NC(=O)[C@H](CC(C)C)N(C)C(=O)[C@H](C)NC(=O)CN(C)C(=O)[C@H](Cc2ccccc2)NC(=O)[C@H]([C@@H](C)O)NC(=O)[C@H](CC(C)C)N(C)C(=O)CCN(C)C(=O)C[C@@H](C(=O)N2CCCCC2)NC(=O)[C@H](CC(C)C)N(C)C(=O)[C@H](CC(C)C)N(C)C1=O [DP-413] ([NMeβAla][NMeL]TF[Sar]A[NMeL]I[NMeL][NMeL]D-Piperidide; lactam N-11) | 68 | 29 | – | –
11 | CC(C)C[C@H]1C(=O)N(C)[C@@H](Cc2ccccc2)C(=O)N[C@@H]([C@@H](C)O)C(=O)N(C)[C@@H](C)C(=O)N(C)[C@@H](CC(C)C)C(=O)N(C)[C@@H](C)C(=O)N[C@H](C(=O)N2CCCCC2)CC(=O)N(C)CCC(=O)N(C)[C@@H](C)C(=O)N[C@@H](C)C(=O)N(C)[C@@H](C(C)C)C(=O)N1C [DP-414] ([NMeβAla][NMeA]A[NMeV][NMeL][NMeF]T[NMeA][NMeL][NMeA]D-Piperidide; lactam N-11) | 20 | 4.4 | – | –
12 | CC[C@H](C)[C@@H]1NC(=O)[C@@H](C)NC(=O)C[C@@H](C(=O)N2CCCCC2)NC(=O)[C@H](Cc2ccccc2)NC(=O)[C@H]([C@@H](C)O)NC(=O)[C@H](C)NC(=O)[C@H](Cc2ccccc2)NC(=O)[C@H](CC(C)C)NC(=O)[C@H](CC(C)C)N(C)C(=O)[C@H](Cc2ccccc2)NC(=O)[C@H](CC(C)C)NC1=O [DP-415] ([dA]ILF[NMeL]LFATFD-Piperidide; lactam N-11) | 118 | 2.9 | – | –
13 | CC[C@H](C)[C@@H]1NC(=O)[C@H](CC(C)C)NC(=O)[C@H](C(C)C)NC(=O)[C@H](CC(C)C)N(C)C(=O)[C@H](CC(C)C)NC(=O)[C@H](Cc2ccccc2)NC(=O)[C@H]([C@@H](C)O)NC(=O)[C@H](CC(C)C)NC(=O)[C@H](Cc2ccccc2)NC(=O)[C@@H](C)N(C)C(=O)C[C@@H](C(=O)N2CCCCC2)NC1=O [DP-416] ([dNMeA]FLTFL[NMeL]VLID-Piperidide; lactam N-11) | 20 | 0.23 | – | –
14 | CC[C@H](C)[C@@H]1NC(=O)[C@H](C(C)C)N(C)C(=O)[C@H](C)N(C)C(=O)[C@H]([C@@H](C)O)NC(=O)[C@H](CC(C)C)N(C)C(=O)[C@H](Cc2ccccc2)NC(=O)[C@H](CC(C)C)N(C)C(=O)[C@@H](C)N(C)C(=O)C[C@@H](C(=O)N2CCCCC2)NC(=O)[C@H](C)NC(=O)[C@H](CC(C)C)N(C)C1=O [DP-417] ([dNMeA][NMeL]F[NMeL]T[NMeA][NMeV]I[NMeL]AD-Piperidide; lactam N-11) | 113 | 43 | – | –
15 | CC(C)C[C@@H]1NC(=O)[C@H](CC(C)C)N(C)C(=O)[C@H](C)NC(=O)[C@H](C(C)C)N(C)C(=O)CN(C)C(=O)[C@H](Cc2ccccc2)NC(=O)[C@H]([C@@H](C)O)NC(=O)[C@H](CC(C)C)N(C)C(=O)[C@@H](C)N(C)C(=O)C[C@@H](C(=O)N2CCCCC2)NC(=O)[C@H](CC(C)C)N(C)C1=O [DP-418] ([dNMeA][NMeL]TF[Sar][NMeV]A[NMeL]L[NMeL]D-Piperidide; lactam N-11) | 71 | 28 | – | –
16 | CC(C)C[C@H]1C(=O)N[C@@H]([C@@H](C)O)C(=O)N(C)[C@@H](C)C(=O)N(C)[C@@H](Cc2ccccc2)C(=O)N(C)CC(=O)N[C@@H](C)C(=O)N(C)[C@@H](Cc2ccccc2)C(=O)N(C)[C@@H](CC(C)C)C(=O)N[C@H](C(=O)N2CCCCC2)CC(=O)N(C)[C@H](C)C(=O)N(C)[C@@H](C)C(=O)N1C [DP-419] ([dNMeA][NMeA][NMeL]T[NMeA][NMeF][Sar]A[NMeF][NMeL]D-Piperidide; lactam N-11) | 17 | 6.7 | – | –
17 | CC(C)C[C@@H]1NC(=O)CN(C)C(=O)[C@H](CC(C)C)NC(=O)[C@H](C)NC(=O)[C@H](CC(C)C)NC(=O)[C@H](CC(C)C)NC(=O)[C@H](C)N(C)C(=O)C[C@@H](C(=O)N2CCCCC2)NC(=O)[C@H]([C@@H](C)O)NC(=O)[C@H](Cc2ccccc2)NC(=O)[C@H](CC(C)C)NC1=O [DP-420] ([NMeA]LLAL[Sar]LLFTD-Piperidide; lactam N-11) | 69 | 10 | – | –
18 | CC(C)C[C@@H]1NC(=O)[C@H](C)NC(=O)[C@H]([C@@H](C)O)NC(=O)[C@H](C)N(C)C(=O)C[C@@H](C(=O)N2CCCCC2)NC(=O)[C@H](CC(C)C)N(C)C(=O)[C@H](CC(C)C)NC(=O)[C@H](C(C)C)N(C)C(=O)[C@H](CC(C)C)NC(=O)[C@H](Cc2ccccc2)NC(=O)CN(C)C1=O [DP-421] ([NMeA]TAL[Sar]FL[NMeV]L[NMeL]D-Piperidide; lactam N-11) | 171 | 29 | – | –
